How the values were obtained:
[1] = tested on: human normal melanocytes [ヒト正常メラノサイト]; assay: Melanin production inhibition (2-[2-14C]thiouracil uptake, 4 days); type: cell-based; conditions: in words, from Table 1
[2] = tested on: human normal melanocytes [ヒト正常メラノサイト]; assay: Detection of acidification in melanosomes (proton pump inhibition; DAMP fluorescence, confocal laser microscope); type: cell-based; conditions: Figure 2; for Colour of overlaid photograph (DAMP + tyrosinase): yellow = melanosome acidified
tyrosinase [チロシナ−ゼ] [3] = target: T1, tyrosinase [チロシナ−ゼ] (Homo sapiens, UniProt P14679); conditions: known from patent literature; cited from earlier work
T1 sequence (P14679 19-529): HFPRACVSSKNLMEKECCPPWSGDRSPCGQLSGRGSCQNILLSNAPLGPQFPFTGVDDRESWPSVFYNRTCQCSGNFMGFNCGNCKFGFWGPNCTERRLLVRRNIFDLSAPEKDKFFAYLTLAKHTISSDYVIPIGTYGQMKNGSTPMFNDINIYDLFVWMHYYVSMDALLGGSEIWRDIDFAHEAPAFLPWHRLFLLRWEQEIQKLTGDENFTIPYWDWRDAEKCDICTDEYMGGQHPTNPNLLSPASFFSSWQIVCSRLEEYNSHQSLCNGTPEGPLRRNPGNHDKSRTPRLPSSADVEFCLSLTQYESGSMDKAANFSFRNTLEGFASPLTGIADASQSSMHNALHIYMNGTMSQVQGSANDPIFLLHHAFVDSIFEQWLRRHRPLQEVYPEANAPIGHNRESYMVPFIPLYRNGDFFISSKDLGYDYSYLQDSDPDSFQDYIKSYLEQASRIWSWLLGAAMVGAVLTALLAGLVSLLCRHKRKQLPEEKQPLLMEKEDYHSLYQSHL

tyrosinase [チロシナ−ゼ] [4] = target: T2, tyrosinase [チロシナ−ゼ] (Homo sapiens, UniProt P14679); assay: Direct tyrosinase inhibition (human melanocyte extract, L-DOPA substrate); type: biochemical; conditions: human normal melanocyte extract, 37℃, 15 min, in words, from Table 2
T2 construct: 溶解液を15000rpm、5分間遠心し、上清を回収し細胞抽出液とした; host or cells: normal human melanocytes (detergent lysate supernatant)

Molecule	Melanin production inhibition compared with the positive control (hydroquinone) [1]	Colour of overlaid photograph (DAMP + tyrosinase) [2]	Red staining showing the presence of tyrosinase ([2]; versus untreated control)	also measured
Euchrenone a3 [化合物2]	優れたメラニン産生抑制作用	黄色より幾分オレンジ色がかっている	–	–
CCCCc1ccc(O)cc1O [4−n−ブチルレゾルシノ−ル]	–	–	–	Tyrosinase inhibitory activity (tyrosinase [チロシナ−ゼ] [3]): 強力なチロシナ−ゼ阻害活性
NC(=S)Nc1ccccc1 [フェニルチオウレア]	–	–	–	Direct tyrosinase inhibition (tyrosinase [チロシナ−ゼ] [4]): 顕著なチロシナ−ゼ直接阻害作用を示した
Oc1ccc(O)cc1 [ハイドロキノン, reference compound]	–	–	–	Melanin production inhibition [1]: 優れたメラニン産生抑制作用
Euchrenone a6 [化合物1]	優れたメラニン産生抑制作用	黄色を呈している	コントロ−ルと同程度	Green staining showing the degree of acidification (DAMP) ([2]; versus untreated control): 濃くなっており
CC(C)=CCc1cc([C@@H]2CC(=O)c3c(O)c(CC=C(C)C)c(O)c(CC=C(C)C)c3O2)cc(O)c1O [化合物3, amorisin]	陽性対照と同等乃至はそれ以上のメラニン産生抑制作用	–	同程度	–
